Assay results published in patent US20040018561A1, “Peptide compounds and their use as protease substrates” (priority 2002, published 2004).
*1 amine or outer side, *2 acyl side, *3 side chain or, on linkers, in order; H or OH if unused. Where a SMILES comes first, the peptide text is derived from it. [ ]: non-standard residue; d: D form. The star is where a group is joined. Dnp = O=[N+]([O-])c1ccc(*)c([N+](=O)[O-])c1; X2 = O=C([C@H](CCCCOCc1ccccc1)N[*:1])[*:2]; X1 = O=C([C@H](CCCCOc1ccccc1)N[*:1])[*:2]; Mca = COc1ccc2c(CC(=O)*)cc(=O)oc2c1; Dap = NC[C@H](N)C(=O)O

Tests used:
MMP-1 = biological target: T1, MMP-1 (Homo sapiens, UniProt P03956); experiment: Km and kcat/Km of substrates with MMP-1; assay type: biochemical; details: summary of Table 1
T1 sequence (P03956 100-469): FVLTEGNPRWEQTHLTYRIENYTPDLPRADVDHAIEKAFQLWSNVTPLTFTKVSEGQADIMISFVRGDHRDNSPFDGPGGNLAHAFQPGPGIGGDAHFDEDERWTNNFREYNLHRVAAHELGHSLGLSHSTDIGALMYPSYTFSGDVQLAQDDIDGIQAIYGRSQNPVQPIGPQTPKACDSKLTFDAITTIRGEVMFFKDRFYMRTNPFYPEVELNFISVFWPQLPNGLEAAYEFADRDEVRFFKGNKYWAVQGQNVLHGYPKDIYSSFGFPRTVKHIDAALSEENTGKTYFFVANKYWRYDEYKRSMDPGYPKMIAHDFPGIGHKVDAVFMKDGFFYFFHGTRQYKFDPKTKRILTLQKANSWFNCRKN

MMP-7 = biological target: T2, MMP-7 (Homo sapiens, UniProt P09237); experiment: Km and kcat/Km of substrates with MMP-7; assay type: biochemical; details: summary of Table 1
T2 sequence (P09237 95-267): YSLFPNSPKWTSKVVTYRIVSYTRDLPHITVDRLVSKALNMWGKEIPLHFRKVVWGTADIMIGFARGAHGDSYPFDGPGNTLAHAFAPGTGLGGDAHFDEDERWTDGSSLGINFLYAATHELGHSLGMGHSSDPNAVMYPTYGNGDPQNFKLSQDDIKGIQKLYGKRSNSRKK

[1] = octanol/water; Tao et al., J. Mol. Model. 1999; cited from earlier work

Structure (SMILES) | kcat with MMP-1 (in words) (MMP-1) | kcat with MMP-7 (in words) (MMP-7) | Log D contribution in a peptide [1]
COc1ccc2c(CC(=O)N[C@@H](CCCNC(=N)N)C(=O)N3CCC[C@H]3C(=O)N[C@@H](CC(C)C)C(=O)NCC(=O)N[C@@H](CCCCOCc3ccccc3)C(=O)N[C@@H](CNc3ccc([N+](=O)[O-])cc3[N+](=O)[O-])C(=O)N[C@@H](C)C(=O)N[C@@H](CCCNC(=N)N)C(=O)N[C@@H](CCC(=O)O)C(=O)N[C@@H](CCCNC(=N)N)C(N)=O)cc(=O)oc2c1 [Compound 20, N-2-[(7-methoxy-2-oxo-2H-chromen-4-yl)acetyl]-L-arginyl-L-prolyl-L-leucylglycyl-6-(benzyloxy)-L-norleucyl-3-[(2,4-dinitrophenyl)amino]-L-alanyl-L-alanyl-L-arginyl-L-alpha-glutamyl-L-argininamide] (Mca-RPLG[X2][Dap](Dnp)ARER-NH2) | low kcat or kcat of zero | low kcat or kcat of zero | –
COc1ccc2c(CC(=O)N[C@H](CCCNC(=N)N)C(=O)N3CCC[C@H]3C(=O)N[C@@H](CC(C)C)C(=O)NCC(=O)N[C@@H](CCCCOCc3ccccc3)C(=O)N[C@@H](CNc3ccc([N+](=O)[O-])cc3[N+](=O)[O-])C(=O)N[C@@H](C)C(=O)N[C@H](CCCNC(=N)N)C(=O)N[C@H](CCC(=O)O)C(=O)N[C@H](CCCNC(=N)N)C(N)=O)cc(=O)oc2c1 [Compound 21, N-2-[(7-methoxy-2-oxo-2H-chromen-4-yl)acetyl]-D-arginyl-L-prolyl-L-leucylglycyl-6-(benzyloxy)-L-norleucyl-3-[(2,4-dinitrophenyl)amino]-L-alanyl-L-alanyl-D-arginyl-D-alpha-glutamyl-D-argininamide] (Mca-[dR]PLG[X2][Dap](Dnp)A[dR][dE][dR]-NH2) | low kcat or kcat of zero | low kcat or kcat of zero | –
COc1ccc2c(CC(=O)N[C@H](CCCNC(=N)N)C(=O)N3CCC[C@H]3C(=O)N[C@@H](CC(C)C)C(=O)NCC(=O)N[C@@H](CCCCOc3ccccc3)C(=O)N[C@@H](CNc3ccc([N+](=O)[O-])cc3[N+](=O)[O-])C(=O)N[C@@H](C)C(=O)N[C@H](CCCNC(=N)N)C(=O)N[C@H](CCC(=O)O)C(=O)N[C@H](CCCNC(=N)N)C(N)=O)cc(=O)oc2c1 [Compound 25, N-2-[(7-methoxy-2-oxo-2H-chromen-4-yl)acetyl]-D-arginyl-L-prolyl-L-leucylglycyl-6-phenoxy-L-norleucyl-3-[(2,4-dinitrophenyl)amino]-L-alanyl-L-alanyl-D-arginyl-D-alpha-glutamyl-D-argininamide] (Mca-[dR]PLG[X1][Dap](Dnp)A[dR][dE][dR]-NH2) | low kcat or kcat of zero | low kcat or kcat of zero | –
C[C@H](N)C(=O)O [alanine] | – | – | −0.27
N=C(N)NCCC[C@H](N)C(=O)O [arginine] | – | – | −1.65
NC(=O)C[C@H](N)C(=O)O [asparagine] | – | – | −0.98
N[C@@H](CC(=O)O)C(=O)O [aspartic acid] | – | – | −2.06
N[C@@H](CCC(=O)O)C(=O)O [glutamic acid] | – | – | −2.19
NCC(=O)O [glycine] | – | – | −0.22
N[C@@H](Cc1c[nH]cn1)C(=O)O [histidine] | – | – | −0.44
NCCCC[C@H](N)C(=O)O [lysine] | – | – | −2.27
C[C@@H](O)[C@H](N)C(=O)O [threonine] | – | – | −0.26
